Data published in ChEMBL document CHEMBL3044789, “Comparing weed and crop seedling response to pre-emergence pendimethalin application in Corchorus olitorius and Abelmoschus esculentus” (Crop Prot, 2006).

Tests used:
[1] = system: Synedrella nodiflora; assay: Herbicidal activity against Synedrella nodiflora in Abelmoschus esculentus plots assessed as weed recovery at 0.99 kg a.i/ha after 2 weeks (reference value: 60.1 +/- 0.46 %); assay type: functional
[2] = system: Synedrella nodiflora; assay: Herbicidal activity against Synedrella nodiflora in Abelmoschus esculentus plots assessed as weed recovery at 0.66 kg a.i/ha after 2 weeks (reference value: 60.1 +/- 0.46 %); assay type: functional
[3] = system: Talinum fruticosum; assay: Herbicidal activity against Talinum fruticosum in Abelmoschus esculentus plots assessed as weed cover at 0.99 kg a.i/ha after 7 weeks (reference value: 14.7 +/- 0.46 %); assay type: functional
[4] = system: Ageratum conyzoides; assay: Herbicidal activity against Ageratum conyzoides in Corchorus olitorius plots assessed as major weed growth at 0.33 kg a.i/ha after 2 weeks; assay type: functional
[5] = system: Synedrella nodiflora; assay: Herbicidal activity against Synedrella nodiflora in Abelmoschus esculentus plots assessed as weed cover at 0.66 kg a.i/ha after 7 weeks (reference value: 14.7 +/- 0.46 %); assay type: functional
[6] = system: Cyperus rotundus; assay: Herbicidal activity against Cyperus rotundus in Abelmoschus esculentus plots assessed as weed cover at 0.66 kg a.i/ha after 7 weeks (reference value: 14.7 +/- 0.46 %); assay type: functional
[7] = system: Calopogonium mucunoides; assay: Herbicidal activity against Calopogonium mucunoides in Corchorus olitorius plots assessed as weed cover at 0.66 kg a.i/ha after 7 weeks (reference value: 1.7 +/- 0.56 %); assay type: functional
[8] = system: Synedrella nodiflora; assay: Herbicidal activity against Synedrella nodiflora in Abelmoschus esculentus plots assessed as weed cover at 0.33 kg a.i/ha after 4 weeks (reference value: 22.6 +/- 0.49 %); assay type: functional
[9] = system: Abelmoschus esculentus; assay: Phytotoxicity in Abelmoschus esculentus assessed as seed germination at 0.99 kg a.i/ha applied as solution after 7 weeks (reference value: 85.7 +/- 0.36 %); assay type: organism-based; conditions: in vivo, other, 1176 h
[10] = system: Calopogonium mucunoides; assay: Herbicidal activity against Calopogonium mucunoides in Corchorus olitorius plots assessed as weed cover at 0.33 kg a.i/ha after 7 weeks (reference value: 1.7 +/- 0.56 %); assay type: functional
[11] = system: Abelmoschus esculentus; assay: Phytotoxicity in Abelmoschus esculentus assessed as seedling emergence at 1.32 kg a.i/ha treated to soil after 7 weeks (reference value: 95 +/- 0.05 %); assay type: organism-based; conditions: in vivo, other, 1176 h
[12] = system: Abelmoschus esculentus; assay: Phytotoxicity in Abelmoschus esculentus assessed as shoot length at 0.33 kg a.i/ha applied as solution after 7 weeks (reference value: 28.7 +/- 0.34 mm); assay type: organism-based; conditions: in vivo, other, 1176 h
[13] = system: Euphorbia heterophylla; assay: Herbicidal activity against Euphorbia heterophylla in Abelmoschus esculentus plots assessed as weed cover at 0.66 kg a.i/ha after 2 weeks (reference value: 63.5 +/- 0.29 %); assay type: functional
[14] = system: Abelmoschus esculentus; assay: Phytotoxicity in Abelmoschus esculentus assessed as seedling injury at 1.32 kg a.i/ha applied as solution after 7 weeks relative to control; assay type: organism-based; conditions: in vivo, other, 1176 h
[15] = system: Euphorbia heterophylla; assay: Herbicidal activity against Euphorbia heterophylla in Corchorus olitorius plots assessed as weed recovery at 1.32 kg a.i/ha after 2 weeks (reference value: 78.3 +/- 0.74 %); assay type: functional
[16] = system: Euphorbia heterophylla; assay: Herbicidal activity against Euphorbia heterophylla in Abelmoschus esculentus plots assessed as weed recovery at 0.66 kg a.i/ha after 2 weeks (reference value: 60.1 +/- 0.46 %); assay type: functional
[17] = system: Synedrella nodiflora; assay: Herbicidal activity against Synedrella nodiflora in Corchorus olitorius plots assessed as weed recovery at 0.33 kg a.i/ha after 2 weeks (reference value: 78.3 +/- 0.74 %); assay type: functional
[18] = system: Synedrella nodiflora; assay: Herbicidal activity against Synedrella nodiflora in Abelmoschus esculentus plots assessed as weed cover at 0.99 kg a.i/ha after 4 weeks (reference value: 22.6 +/- 0.49 %); assay type: functional
[19] = system: Calopogonium mucunoides; assay: Herbicidal activity against Calopogonium mucunoides in Abelmoschus esculentus plots assessed as weed cover at 0.33 kg a.i/ha after 2 weeks (reference value: 63.5 +/- 0.29 %); assay type: functional
[20] = system: Abelmoschus esculentus; assay: Phytotoxicity in Abelmoschus esculentus assessed as shoot length at 0.33 kg a.i/ha treated to soil after 7 weeks (reference value: 8.5 +/- 0.34 mm); assay type: organism-based; conditions: in vivo, other, 1176 h
[21] = system: Synedrella nodiflora; assay: Herbicidal activity against Synedrella nodiflora in Corchorus olitorius plots assessed as weed cover at 0.33 kg a.i/ha after 7 weeks (reference value: 1.7 +/- 0.56 %); assay type: functional
[22] = system: Cyperus rotundus; assay: Herbicidal activity against Cyperus rotundus in Corchorus olitorius plots assessed as weed cover at 0.66 kg a.i/ha after 2 weeks (reference value: 81.7 +/- 0.43 %); assay type: functional
[23] = system: Calopogonium mucunoides; assay: Herbicidal activity against Calopogonium mucunoides in Abelmoschus esculentus plots assessed as weed cover at 0.66 kg a.i/ha after 2 weeks (reference value: 63.5 +/- 0.29 %); assay type: functional
[24] = system: Euphorbia heterophylla; assay: Herbicidal activity against Euphorbia heterophylla in Corchorus olitorius plots assessed as major weed growth at 1.32 kg a.i/ha after 2 weeks; assay type: functional
[25] = system: Chromolaena odorata; assay: Herbicidal activity against Chromolaena odorata in Corchorus olitorius plots assessed as minor weed growth at 0.99 kg a.i/ha after 2 weeks; assay type: functional
[26] = system: Euphorbia heterophylla; assay: Herbicidal activity against Euphorbia heterophylla in Abelmoschus esculentus plots assessed as weed cover at 0.33 kg a.i/ha after 2 weeks (reference value: 63.5 +/- 0.29 %); assay type: functional
[27] = system: Chromolaena odorata; assay: Herbicidal activity against Chromolaena odorata in Corchorus olitorius plots assessed as weed cover at 1.32 kg a.i/ha after 2 weeks (reference value: 81.7 +/- 0.43 %); assay type: functional
[28] = system: Corchorus olitorius; assay: Phytotoxicity in Corchorus olitorius assessed as seed germination at 0.99 kg a.i/ha applied as solution after 7 weeks relative to untreated control; assay type: organism-based; conditions: in vivo, other, 1176 h
[29] = system: Synedrella nodiflora; assay: Herbicidal activity against Synedrella nodiflora in Corchorus olitorius plots assessed as major weed growth at 0.99 kg a.i/ha after 2 weeks; assay type: functional
[30] = system: Synedrella nodiflora; assay: Herbicidal activity against Synedrella nodiflora in Corchorus olitorius plots assessed as weed cover at 0.99 kg a.i/ha after 7 weeks (reference value: 1.7 +/- 0.56 %); assay type: functional
[31] = system: Euphorbia heterophylla; assay: Herbicidal activity against Euphorbia heterophylla in Abelmoschus esculentus plots assessed as weed cover at 0.33 kg a.i/ha after 4 weeks (reference value: 22.6 +/- 0.49 %); assay type: functional
[32] = system: Rottboellia cochinchinensis; assay: Herbicidal activity against Rottboellia cochinchinensis in Abelmoschus esculentus plots assessed as weed recovery at 0.33 kg a.i/ha after 2 weeks (reference value: 60.1 +/- 0.46 %); assay type: functional
[33] = system: Ageratum conyzoides; assay: Herbicidal activity against Ageratum conyzoides in Corchorus olitorius plots assessed as weed recovery at 0.33 kg a.i/ha after 2 weeks (reference value: 78.3 +/- 0.74 %); assay type: functional
[34] = system: Euphorbia heterophylla; assay: Herbicidal activity against Euphorbia heterophylla in Corchorus olitorius plots assessed as weed recovery at 0.66 kg a.i/ha after 2 weeks (reference value: 78.3 +/- 0.74 %); assay type: functional
[35] = system: Corchorus olitorius; assay: Phytotoxicity in Corchorus olitorius assessed as seed germination at 0.66 kg a.i/ha applied as solution after 7 weeks relative to untreated control; assay type: organism-based; conditions: in vivo, other, 1176 h
[36] = system: Abelmoschus esculentus; assay: Phytotoxicity in Abelmoschus esculentus assessed as seedling injury at 0.99 kg a.i/ha applied as solution after 7 weeks relative to control; assay type: organism-based; conditions: in vivo, other, 1176 h

CCC(CC)Nc1c([N+](=O)[O-])cc(C)c(C)c1[N+](=O)[O-] [PENDIMETHALIN]
Activity [1]: 36.2%
Activity [2]: 47.9%
Activity [3]: 83.9%
Activity [4]: 31 /m2
Activity [5]: 90%
Activity [6]: 90%
Activity [7]: 100%
Activity [8]: 53.8%
Activity [9]: 41.1%
Activity [10]: 100%
Activity [11]: 85%
Activity [12]: 14.5 mm
Activity [13]: 50.8%
Activity [14]: 56.8%
Activity [15]: 13.3%
Activity [16]: 47.9%
Activity [17]: 31.7%
Activity [18]: 39.2%
Activity [19]: 56.8%
Activity [20]: 8.6 mm
Activity [21]: 100%
Activity [22]: 51.7%
Activity [23]: 50.8%
Activity [24]: 31 /m2
Activity [25]: 1 /m2
Activity [26]: 56.8%
Activity [27]: 41.7%
Activity [28]: 72.7%
Activity [29]: 31 /m2
Activity [30]: 95%
Activity [31]: 53.8%
Activity [32]: 39.2%
Activity [33]: 31.7%
Activity [34]: 33.3%
Activity [35]: 84.7%
Activity [36]: 47.9%
